PMC12587552, “A nitrogen-containing diphyllin derivative C156-P1 exhibited broad-spectrum antiviral activity against Flaviviridae viruses by preventing endosomal acidification” (Antimicrobial Agents and Chemotherapy, 2025)
Like-named read-outs stand apart in the source and are kept apart here.

Key:
[1] = tested on: endosomal acidification in A549 cells; experiment: Endosomal acidification, LysoSensor DND-189 flow cytometry; assay type: cell-based, human; settings: A549 cells pretreated 12 h; C156-P1 100 nM or 1 µM, Baf-A1 100 nM
[2] = biological target: V-ATPase (Homo sapiens, UniProt Q9Y487); experiment: ATPase activity assay on lysate of treated cells; assay type: cell-based; settings: A549 cells treated 24 h; C156-P1 100 nM or 1000 nM, PHY34 100 nM, Baf-A1 100 nM; 2 µg total cell protein
[3] = tested on: DENV-2
[4] = in vitro; settings: human
[5] = tested on: DENV-2; experiment: microbe, parasite or virus in culture; settings: Dengue virus, DENV2, A549, 48 h, read-out: EC50 against DENV-2
[6] = tested on: other Flaviviridae viruses; settings: cited from earlier work
[7] = tested on: ATP6V0A2; experiment: ATP6V0A2 mRNA level by RT-qPCR; assay type: cell-based, human; settings: A549 cells, 100 nM, 48 h
[8] = tested on: ZIKV; set-up: method as in PMID 29033372, PMID 28694387; settings: cited from earlier work
[9] = tested on: ZIKV; settings: cited from earlier work
[10] = tested on: DENV-2; set-up: method as in PMID 30125275; settings: read-out: EC50 against DENV-2 infection; cited from earlier work

Sequence of V-ATPase (Q9Y487 whole entry, looked up): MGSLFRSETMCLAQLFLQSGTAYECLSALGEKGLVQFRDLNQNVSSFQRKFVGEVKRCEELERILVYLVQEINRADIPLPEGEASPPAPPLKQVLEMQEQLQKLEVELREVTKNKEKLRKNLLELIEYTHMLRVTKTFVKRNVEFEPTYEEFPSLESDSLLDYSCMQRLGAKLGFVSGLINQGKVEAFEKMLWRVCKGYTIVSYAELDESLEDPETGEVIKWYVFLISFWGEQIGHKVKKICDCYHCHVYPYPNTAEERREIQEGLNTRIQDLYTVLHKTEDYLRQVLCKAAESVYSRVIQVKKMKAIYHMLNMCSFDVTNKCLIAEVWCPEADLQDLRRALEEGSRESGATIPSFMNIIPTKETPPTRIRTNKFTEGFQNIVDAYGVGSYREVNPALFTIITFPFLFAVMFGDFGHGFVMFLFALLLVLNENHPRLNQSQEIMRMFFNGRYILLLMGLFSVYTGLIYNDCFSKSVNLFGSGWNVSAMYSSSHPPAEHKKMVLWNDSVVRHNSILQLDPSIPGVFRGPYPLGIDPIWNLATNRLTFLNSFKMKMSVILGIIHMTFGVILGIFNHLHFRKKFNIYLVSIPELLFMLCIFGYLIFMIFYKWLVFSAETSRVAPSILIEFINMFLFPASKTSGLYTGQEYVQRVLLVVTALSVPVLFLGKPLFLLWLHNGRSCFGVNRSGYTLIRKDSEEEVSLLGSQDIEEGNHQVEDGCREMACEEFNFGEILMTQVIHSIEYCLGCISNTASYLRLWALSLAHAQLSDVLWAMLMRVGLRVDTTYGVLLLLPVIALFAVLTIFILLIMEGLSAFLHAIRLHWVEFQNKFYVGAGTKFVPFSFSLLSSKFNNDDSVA

CO/C1=C\C(C)=C\[C@@H](C)[C@@H](O)[C@@H](C)C/C(C)=C/C=C/[C@H](OC)[C@@H]([C@@H](C)[C@@H](O)[C@H](C)[C@@]2(O)C[C@@H](O)[C@H](C)[C@@H](C(C)C)O2)OC1=O [Baf-A1, bafilomycin A1]
Endosomal acidification (FITC intensity of LysoSensor DND-189) [1]: shifted the peak of FITC leftward | V-ATPase activity [2]: significantly reduced V-ATPase activity

COc1cc2c(O)c3c(c(-c4ccc5c(c4)OCO5)c2cc1OC)C(=O)OC3 [DP, diphyllin]
SI (ratio of CC50 to EC50) ([3]; A549 cells, DENV-2): 39.98 | CC50 [4]: 16000 nM | EC50 [5]: 401 nM

COc1cc(N[C@H](C(=O)c2c[nH]c3ccc(OC(F)(F)F)cc23)c2ccc(Cl)cc2OC)cc(S(C)(=O)=O)c1 [JNJ-1802]
Inhibitory effects against other Flaviviridae viruses [6]: lacks inhibitory effects

COc1cc2c(O[C@@H]3O[C@H](CO)[C@@H]4OC(C)(C)O[C@@H]4[C@H]3O)c3c(c(-c4ccc5c(c4)OCO5)c2cc1OC)C(=O)OC3 [PHY34, reference compound]
Endosomal acidification (FITC intensity of LysoSensor DND-189) [1]: inhibited endosomal acidification | V-ATPase activity [2]: significantly reduced V-ATPase activity | ATP6V0A2 mRNA expression [7]: decrease in ATP6V0A2 mRNA expression | DENV-2 infection (NS3 protein, Western blot) ([3]; A549 cells, MOI = 2, 48 h, indicated concentrations): inhibited endosomal acidification and DENV-2 infection in a dose-dependent manner

COc1cc2c(O[C@@H]3O[C@H](C)[C@@H](O)[C@H](O)[C@H]3O)c3c(c(-c4ccc5c(c4)OCO5)c2cc1OC)C(=O)OC3 [PTA, patentiflorin A, reference compound]
SI (ratio of CC50 to EC50) [3]: 5.12 | CC50 [4]: 195 nM | EC50 [5]: 38.1 nM

CCN(CC)CCCC(C)Nc1ccnc2cc(Cl)ccc12 (centres unmarked) [chloroquine]
Inhibitory concentration (dose) required in mice against ZIKV [8]: 100 mg/kg | Inhibitory concentrations necessary for ZIKV infection in cell culture [9]: micromolar range

CCN(CCO)CCCC(C)Nc1ccnc2cc(Cl)ccc12 (centres unmarked) [hydroxychloroquine]
Inhibitory concentration (dose) required in mice against ZIKV [8]: 40 mg/kg

O=C(Nc1ccc([N+](=O)[O-])cc1Cl)c1cc(Cl)ccc1O [niclosamide]
EC50 [10]: ~10000 nM
